From paper doi:10.1101/2025.04.10.648262, “Time-resolved phenotyping at subcellular resolution reveals shared principles and key trade-offs across antimicrobial peptide activities” (bioRxiv, 2026) come the findings set out here.

SMILES strings stand for the structures. Bridge positions count the residues as written; N and C are the ends. Square brackets hold non-standard residues; d marks the D form. Peptide text beside a SMILES is read from it. Nspe = C[C@H](NCC(=O)O)c1ccccc1; Nlys = NCCCCNCC(=O)O Bounds are passed on as bounds.

The assay deals with E. coli strain (CJW7845). The assay is described as follows: Time-lapse single-cell phenotyping of inner/outer membrane permeabilization to proteins and growth arrest in microwells. The format is cell-based, Escherichia coli. Further details: key to Class (timing of growth arrest relative to IM permeabilization to proteins): Class I AMPs and PMs cause growth arrest predominantly associated with inner membrane (IM) permeabilization; class II compounds inhibit growth without substantial IM permeabilization. The conditions noted are these: for Class (timing of growth arrest relative to IM permeabilization to proteins) / Type (relative timing of OM and IM permeabilization) / OM-permeabilized cells among IM-permeabilized cells: 2X MIC; for Class (timing of growth arrest relative to IM permeabilization to proteins) / Type (relative timing of OM and IM permeabilization): CJW7845, M9gluCAAT, 37°C, time-lapse microscopy; for OM-permeabilized cells among IM-permeabilized cells: CJW7845, during the experiment; for OM-permeabilized cells (out of all IM-permeabilized cells): 10X MIC, CJW7845. How it is done:
For experiments with PDMS microwells, cells were allowed to grow for ~30 min in the temperature-controlled enclosure prior to imaging. A 10X concentrated AMP solution was spiked in (at 1/10 the volume of the well) and mixed well by pipetting after ~20 min from the start of the image acquisition, without interrupting the timelapse sequence. When the uptake of SYTOX Green was monitored, SYTOX Green was included in the AMP solution and spiked in during the experiment to obtain a final concentration of SYTOX Green of 50 nM in the well. This allowed us to monitor healthy cell growth prior to AMP treatment, to rapidly set the desired AMP (or SYTOX Green) concentration from one frame to the next (unlike for flow-controlled injection systems), and to resolve the AMP-induced phenotype in real time. The current design allows for testing up to four independent conditions in parallel.
To analyse the single-cell experiments in microwells, OmniSegger software (https://github.com/tlo-bot/omnisegger), which combines SuperSegger MATLAB-based suite ([Stylianidou et al., 2016]) for cell analysis with Omnipose segmentation ([Cutler et al., 2022]), was used to first process the microscopy images by performing drift correction, cell segmentation, and cell linking. Given that AMP-treated cells can display extreme phenotypes, such as exceedingly bright and/or heterogeneous phase contrast signal (likely a result of the widely changing intracellular density upon AMP treatment) and that the software’s pre-trained model bact_phase_omni ([Cutler et al, 2022]) tended to split cells before cell division was completed, a new Omnipose model was trained from scratch starting from bact_phase_omni-generated masks that were further corrected and curated using custom-made Python scripts (screening_good_bad.py and generate_training_dataset.py). Details on the Omnipose model retraining can be found in a previous publication ([Thappeta et al., 2025]). The final model (omnipose_phase_microwells_model) and corresponding training datasets are available at https://github.com/JacobsWagnerLab/published/tree/master/Fragasso_et_al_2025 and BioImage Archive (accession number: S-BIAD1823), respectively.
MATLAB files of the linked cell trajectories output from OmniSegger were then imported, background subtracted using background_subtraction.py, which was adapted from a previous study ([Papagiannakis et al., 2025]), and converted to Python data structures (import_processing_code.py), from which cell features such as cell area, nucleoid area, mean fluorescence intensity, etc., were extracted for each cell at each frame. The exported dataframes were further processed to estimate instantaneous growth rates and were run through a series of functions to perform curation based on cell areas and instantaneous growth rates over time (post_processing_curation_functions.py). […] Represented data points were pooled from multiple replicates.
Analysis of strain CJW7845 proceeded by extracting the timings of permeabilization of the outer and inner membranes based on the mean fluorescence intensities of mScarlet-I and/or mTagBFP2 fluorescent proteins (using function get_permeabilization_time.py), cell growth arrest, and the initiation time of growth inhibition. To obtain accurate timings underlying membrane permeabilization events, information from both the signal intensity itself as well as its derivative were combined, which enabled us to accurately resolve the relevant changes in fluorescent protein signal beyond the intrinsic high-frequency noise and low-frequency photobleaching. Inner membrane permeabilization to proteins can result in two possible phenotypes when simultaneously monitoring freely diffusing periplasmic and cytoplasmic probes, depending on which membrane (outer or inner) becomes permeabilized first. When the outer membrane is first permeabilized, mScarlet-I signal is lost first, followed by mTagBFP2 when the inner membrane becomes also permeabilized. […]

Consider `CC[C@H](C)[C@@H]1NC(=O)CNC(=O)[C@H](CCCNC(=N)N)NC(=O)[C@H](Cc2ccc(O)cc2)NC(=O)[C@@H]2CSSC[C@H](NC1=O)C(=O)N[C@@H](Cc1ccc(O)cc1)C(=O)N[C@@H](CCCNC(=N)N)C(=O)N[C@@H](CCCNC(=N)N)C(=O)N[C@H](C(=O)N[C@@H](CCCNC(=N)N)C(N)=O)CSSC[C@H](NC(=O)[C@H](Cc1c[nH]c3ccccc13)NC(=O)[C@@H](N)CCCCN)C(=O)N[C@@H](Cc1ccccc1)C(=O)N[C@@H](CCCNC(=N)N)C(=O)N[C@@H](C(C)C)C(=O)N2` [Tac1, tachyplesin-1] (H-KWCFRVCYRGICYRRCR-NH2; disulfide 3-16, 7-12 (inferred); N-terminus assumed), for which the “Class (timing of growth arrest relative to IM permeabilization to proteins)” value is on record as “I”; the “Type (relative timing of OM and IM permeabilization)” value was “A (type A AMPs predominantly permeabilize the outer membrane (OM) within 10 min of the IM)”; the “OM-permeabilized cells among IM-permeabilized cells” value is 273/273; the “OM-permeabilized cells (out of all IM-permeabilized cells)” value is listed as 82/128.

With `CC[C@@H](C)[C@@H](NC(=O)[C@@H](C)NC(=O)[C@@H](CCCNC(=N)N)NC(=O)[C@@H](Cc1c[nH]c2ccccc12)NC(=O)[C@@H](CCC(N)=O)NC(=O)[C@H](N)C(C)C)C(=O)N[C@H](CCCNC(=N)N)C(=O)N[C@@H](C(=O)N[C@H](CCCNC(=N)N)C(=O)N[C@@H](C(=O)N[C@@H](C(=O)N[C@H](CCCNC(=N)N)C(N)=O)[C@H](C)CC)C(C)C)C(C)C` [DJK-5] (H-[dV][dQ][dW][dR][dA][dI][dR][dV][dR][dV][dI][dR]-NH2; N-terminus and C-terminus assumed), the “Class (timing of growth arrest relative to IM permeabilization to proteins)” value is reported as “II”; the “Type (relative timing of OM and IM permeabilization)” value was “B (type B AMPs and PMs permeabilize the IM well before (>10 min) the OM)”; the “OM-permeabilized cells among IM-permeabilized cells” value is 81/151. Besides, where the note is “concentrations close to the MIC (2X MIC)”, the “Cells in which the IM became permeabilized” value was more than 60%.

As for `C[C@@H](c1ccccc1)N(CC(N)=O)C(=O)CN(C(=O)CN(CCCCN)C(=O)CN(C(=O)CN(C(=O)CN(CCCCN)C(=O)CN(C(=O)CN(C(=O)CN(CCCCN)C(=O)CN(C(=O)CN(C(=O)CNCCCCN)[C@@H](C)c1ccccc1)[C@@H](C)c1ccccc1)[C@@H](C)c1ccccc1)[C@@H](C)c1ccccc1)[C@@H](C)c1ccccc1)[C@@H](C)c1ccccc1)[C@@H](C)c1ccccc1` [TM1] (H-[Nlys][Nspe][Nspe][Nlys][Nspe][Nspe][Nlys][Nspe][Nspe][Nlys][Nspe][Nspe]-NH2), the “Class (timing of growth arrest relative to IM permeabilization to proteins)” value is “I”; the “Type (relative timing of OM and IM permeabilization)” value is “B (type B AMPs and PMs permeabilize the IM well before (>10 min) the OM)”; the “OM-permeabilized cells among IM-permeabilized cells” value is listed as 24/97; the “OM-permeabilized cells (out of all IM-permeabilized cells)” value is 77/171.
